pIC50: −log10 of the molar value.

Sequence of PD-1/PD-L1 interaction (PD-1-Ig / PD-L1-His) (Q9NZQ7 other isoform, or with tags, fused parts or gaps): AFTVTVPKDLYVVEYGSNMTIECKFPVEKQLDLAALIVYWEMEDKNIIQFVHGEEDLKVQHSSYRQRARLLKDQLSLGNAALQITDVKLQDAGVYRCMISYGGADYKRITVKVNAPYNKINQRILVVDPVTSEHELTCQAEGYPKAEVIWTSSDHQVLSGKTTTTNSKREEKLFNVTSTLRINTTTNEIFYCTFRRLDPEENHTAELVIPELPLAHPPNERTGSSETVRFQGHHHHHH

The first experiment deals with PD-1/PD-L1 interaction (PD-1-Ig / PD-L1-His) (Homo sapiens (Human), UniProt Q9NZQ7). Description: PD-1/PD-L1 Homogenous Time-Resolved Fluorescence (HTRF) binding assay. The conditions noted are these: PD-1/PD-L1 HTRF binding assay; numeric value; read-out: Range or IC50. An outline of the steps:
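Human PD-L1-His (10 nM final) was pre-incubated with inhibitor for 15 min, then PD-1-Ig (20 nM final) was added for a further 15 min in dPBS with 0.1% BSA and 0.05% Tween-20. Binding was detected by HTRF using Eu-cryptate anti-Ig (1 nM) and APC anti-His (20 nM).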
(TR-FRET usually uses a lanthanide donor and a delayed reading to cut background.)
As usually defined, the pIC50 is the IC50 on a negative log10 scale, so that one unit is a factor of ten. For `Cc1c(COc2ccc(CN[C@](C)(CO)C(=O)O)c(OCc3cccc(C#N)c3)c2Cl)cccc1-c1ccc2c(c1)OCCO2` [Example 1239, (R)-2-((3-chloro-2-((3-cyanobenzyl)oxy)-4-((3-(2,3-dihydrobenzo[b][1,4]dioxin-6-yl)-2-methylbenzyl)oxy)benzyl)amino)-3-hydroxy-2-methylpropanoic acid], the pIC50 was 6.83.

Consider `Cc1c(COc2cc(OCc3cncc(C#N)c3)c(CN[C@@H](Cc3cccnc3)C(=O)O)cc2Cl)cccc1-c1ccc2c(c1)OCCO2` [Example 2010, (S)-2-((5-chloro-2-((5-cyanopyridin-3-yl)methoxy)-4-((3-(2,3-dihydrobenzo[b][1,4]dioxin-6-yl)-2-methylbenzyl)oxy)benzyl)amino)-3-(pyridin-3-yl)propanoic acid], for which the pIC50 is 7.30. For the compound `Cc1c(COc2ccc(CN[C@H](CO)C(=O)O)c(OCc3cccc(C#N)c3)c2)cccc1-c1ccccc1` [Example 1016, (R)-2-((2-((3-cyanobenzyl)oxy)-4-((2-methyl-[1,1′-biphenyl]-3-yl)methoxy)benzyl)amino)-3-hydroxypropanoic acid], the negative logarithm of the IC50 (pIC50) is 8.34.

Still in this experiment, the particulars now being: PD-1/PD-L1 HTRF binding assay; value given as range class; read-out: Range or IC50.
Take `Cc1c(COc2cc(OCc3cccc(C#N)c3)c(CNCCO)cc2Cl)cccc1-c1ccc2c(c1)OCCO2` [Example 1170, 3-((4-chloro-5-((3-(2,3-dihydrobenzo[b][1,4]dioxin-6-yl)-2-methylbenzyl)oxy)-2-(((2-hydroxyethyl)amino)methyl)phenoxy)methyl)benzonitrile]: the pIC50 was 8.00 to 9.22.

In the case of `CCOC(=O)Nc1cncc(COc2cc(OCc3cccc(-c4ccc5c(c4)OCCO5)c3C)c(Cl)cc2C=O)c1` [Example 3008, ethyl (5-((4-chloro-5-((3-(2,3-dihydrobenzo[b][1,4]dioxin-6-yl)-2-methylbenzyl)oxy)-2-formylphenoxy)methyl)pyridin-3-yl)carbamate], the negative-log IC50 (pIC50) was 8.00 to 9.22. `CC(=O)NCCNCc1cc(Br)c(OCc2cccc(-c3ccc4c(c3)OCCO4)c2C)cc1OCc1cncc(C#N)c1` [Example 1317, N-(2-(5-bromo-2-((5-cyanopyridin-3-yl)methoxy)-4-(3-(2,3-dihydrobenzo[b][1,4]dioxin-6-yl)-2-methylbenzyloxy)benzylamino)ethyl)acetamide]: the negative-log IC50 (pIC50) is 8.00 to 9.22. Still for that read-out and setting: the same measure for `Cc1c(COc2ccc(CN[C@@H](CO)CC(=O)O)c(OCc3cccc(C#N)c3)c2)cccc1-c1ccc2c(c1)OCCO2` [Example 1129, (R)-3-((2-((3-cyanobenzyl)oxy)-4-((3-(2,3-dihydrobenzo[b][1,4]dioxin-6-yl)-2-methylbenzyl)oxy)benzyl)amino)-4-hydroxybutanoic acid]: 8.00 to 9.22; for `COc1ccc(COc2cc(OCc3cccc(-c4ccccc4)c3C)ccc2CNCCNC(C)=O)cc1` [Example 1090, N-(2-((2-((4-methoxybenzyl)oxy)-4-((2-methyl-[1,1′-biphenyl]-3-yl)methoxy)benzyl)amino)ethyl)acetamide]: 4.70 to 7.00; for `CC(=O)NCCNCc1ccc(OCc2cccc(-c3ccccc3)c2C)cc1OCc1cc(F)cc(OC(F)(F)F)c1` [Example 1106, N-(2-((2-((3-fluoro-5-(trifluoromethoxy)benzyl)oxy)-4-((2-methyl-[1,1′-biphenyl]-3-yl)methoxy)benzyl)amino)ethyl)acetamide]: 4.70 to 7.00.

Consider `N#Cc1cccc(COc2cc(OCc3cccc(-c4ccc5c(c4)OCCO5)c3C#N)c(Br)cc2CN2CCCC[C@H]2C(=O)O)c1` [Example 1313, (S)-1-(5-bromo-4-((2-cyano-3-(2,3-dihydrobenzo[b][1,4]dioxin-6-yl)benzyl)oxy)-2-((3-cyanobenzyl)oxy)benzyl)piperidine-2-carboxylic acid], for which the pIC50 is 8.00 to 9.22. For `CC(=O)NCCNCc1ccc(OCc2cccc(-c3ccccc3)c2C)cc1OCc1ccc(F)c(F)c1` [Example 1059, N-(2-((2-((3,4-difluorobenzyl)oxy)-4-((2-methyl-[1,1′-biphenyl]-3-yl)methoxy)benzyl)amino)ethyl)acetamide], the pIC50 was 4.70 to 7.00. On the same count and under the same terms, as for `CC(=O)NCCNCc1cc(Cl)c(OCc2cccc(-c3ccc4c(c3)OCCO4)c2C)cc1OCc1cccc(C#N)c1` [Example 1247, N-(2-((5-chloro-2-((3-cyanobenzyl)oxy)-4-((3-(2,3-dihydrobenzo[b][1,4]dioxin-6-yl)-2-methylbenzyl)oxy)benzyl)amino)ethyl)acetamide], the figure is 8.00 to 9.22.

Regarding `Cc1c(COc2ccc(CNC[C@@H](O)CC(=O)O)c(OCCCCC#N)c2)cccc1-c1ccccc1` [Example 1144, (S)-4-((2-(4-cyanobutoxy)-4-((2-methyl-[1,1′-biphenyl]-3-yl)methoxy)benzyl)amino)-3-hydroxybutanoic acid], the negative logarithm of the IC50 (pIC50) is 8.00 to 9.22. For the compound `CC(=O)NCCNCc1ccc(OCc2cccc(-c3ccccc3)c2C)cc1OCc1ccccc1C(F)(F)F` [Example 1066, N-(2-((4-((2-methyl-[1,1′-biphenyl]-3-yl)methoxy)-2-((2-(trifluoromethyl)benzyl)oxy)benzyl)amino)ethyl)acetamide], the pIC50 is 4.70 to 7.00. Same read-out and setting: the same measure for `CC(=O)NCCNCc1ccc(OCc2cccc(-c3ccccc3)c2C)cc1OCc1c(F)cccc1F` [Example 1049, N-(2-((2-((2,6-difluorobenzyl)oxy)-4-((2-methyl-[1,1′-biphenyl]-3-yl)methoxy)benzyl)amino)ethyl)acetamide]: 4.70 to 7.00. With `Cc1c(COc2cc(OCc3cccc(C#N)c3)c(CN(Cc3ccccc3)[C@@H](CO)C(=O)O)cc2Cl)cccc1-c1ccc2c(c1)OCCO2` [Example 1171, (S)-2-(benzyl(5-chloro-2-((3-cyanobenzyl)oxy)-4-((3-(2,3-dihydrobenzo[b][1,4]dioxin-6-yl)-2-methylbenzyl)oxy)benzyl)amino)-3-hydroxypropanoic acid], the pIC50 was 7.00 to 8.00. With `Cc1c(COc2cc(OCc3cncc(C#N)c3)c(CN[C@@H](CCN)C(=O)O)cc2Cl)cccc1-c1ccc2c(c1)OCCO2` [Example 2005, (S)-4-amino-2-((5-chloro-2-((5-cyanopyridin-3-yl)methoxy)-4-((3-(2,3-dihydrobenzo[b][1,4]dioxin-6-yl)-2-methylbenzyl)oxy)benzyl)amino)butanoic acid], the negative-log IC50 (pIC50) was 7.00 to 8.00. Take `COC(=O)c1ccc(OC)c(COc2cc(OCc3cccc(-c4ccc5c(c4)OCCO5)c3C)c(Cl)cc2CN2CCCC[C@H]2C(=O)O)c1` [Example 3026, (S)-1-(5-chloro-4-((3-(2,3-dihydrobenzo[b][1,4]dioxin-6-yl)-2-methylbenzyl)oxy)-2-((2-methoxy-5-(methoxycarbonyl)benzyl)oxy)benzyl)piperidine-2-carboxylic acid]: the pIC50 was 4.70 to 7.00. `CC(=O)NCCNCc1cc(C)c(OCc2cccc(-c3ccc4c(c3)OCCO4)c2C)cc1OCc1ccc(F)c(C#N)c1` [Example 1271, N-(2-((2-((3-cyano-4-fluorobenzyl)oxy)-4-((3-(2,3-dihydrobenzo[b][1,4]dioxin-6-yl)-2-methylbenzyl)oxy)-5-methylbenzyl)amino)ethyl)acetamide]: the pIC50 was 8.00 to 9.22. As to `Cc1c(COc2cc(OCc3cncc(C#N)c3)c(CN3CCCC[C@H]3C(=O)NS(=O)(=O)N(C)C)cc2Cl)cccc1-c1ccc2c(c1)OCCO2` [Example 1257, (S)-1-(5-chloro-2-((5-cyanopyridin-3-yl)methoxy)-4-((3-(2,3-dihydrobenzo[b][1,4]dioxin-6-yl)-2-methylbenzyl)oxy)benzyl)-N—(N,N-dimethylsulfamoyl)piperidine-2-carboxamide], the pIC50 was 7.00 to 8.00. Same read-out and setting: as for `CC(=O)NCCNCc1ccc(OCc2cccc(-c3ccccc3)c2C)cc1OCc1ccc(-c2ccccc2C#N)cc1` [Example 1089, N-(2-((2-((2′-cyano-[1,1′-biphenyl]-4-yl)methoxy)-4-((2-methyl-[1,1′-biphenyl]-3-yl)methoxy)benzyl)amino)ethyl)acetamide], the figure is 4.70 to 7.00; as for `COc1cc(OCc2cccc(-c3ccccc3)c2C)cc(OCc2cccc(C#N)c2)c1CN[C@@H](C(=O)O)[C@H](C)O` [Example 1135, (2R,3S)-2-((2-((3-cyanobenzyl)oxy)-6-methoxy-4-((2-methyl-[1,1′-biphenyl]-3-yl)methoxy)benzyl)amino)-3-hydroxybutanoic acid], 8.00 to 9.22.

As to `Cc1cc(CN2CCCC[C@H]2C(=O)O)c(OCc2cccnc2)cc1OCc1cccc(-c2ccc3c(c2)OCCO3)c1C` [Example 1279, (S)-1-(4-((3-(2,3-dihydrobenzo[b][1,4]dioxin-6-yl)-2-methylbenzyl)oxy)-5-methyl-2-(pyridin-3-ylmethoxy)benzyl)piperidine-2-carboxylic acid], the pIC50 is 8.00 to 9.22. Still for that read-out and setting: the same measure for `Cc1c(COc2cc(OCc3cncc(C#N)c3)c(CN3CCCC[C@H]3C(=O)O)cc2Br)cccc1-c1ccc2c(c1)OCCO2` [Example 1319, (S)-1-(5-bromo-2-((5-cyanopyridin-3-yl)methoxy)-4-(3-(2,3-dihydrobenzo[b][1,4]dioxin-6-yl)-2-methylbenzyloxy)benzyl)piperidine-2-carboxylic acid]: 8.00 to 9.22.

On to `Cc1c(COc2cc(OCc3cccc(C#N)c3)c(CNC(C(=O)O)C(F)(F)F)cc2Cl)cccc1-c1ccc2c(c1)OCCO2` (stereo not drawn) [Example 1162, 2-((5-chloro-2-((3-cyanobenzyl)oxy)-4-((3-(2,3-dihydrobenzo[b][1,4]dioxin-6-yl)-2-methylbenzyl)oxy)benzyl)amino)-3,3,3-trifluoropropanoic acid], for which the negative-log IC50 (pIC50) is 4.70 to 7.00.

Take `CC(=O)NCCNCc1ccc(OCc2cccc(-c3ccccc3)c2C)cc1OCc1ccc2ccccc2c1` [Example 1056, N-(2-((4-((2-methyl-[1,1′-biphenyl]-3-yl)methoxy)-2-(naphthalen-2-ylmethoxy)benzyl)amino)ethyl)acetamide]: the negative-log IC50 (pIC50) is 4.70 to 7.00. For the compound `COc1cc(COc2cc(OCc3cccc(-c4ccc5c(c4)OCCO5)c3C)c(Cl)cc2CO)ccn1` [Example 3016, (5-chloro-4-{[3-(2,3-dihydro-1,4-benzodioxin-6-yl)-2-methylphenyl]methoxy}-2-[(2-methoxypyridin-4-yl)methoxy]phenyl)methanol], the pIC50 was 4.70 to 7.00.

(Values after patent publication US9850225B2, “Compounds useful as immunomodulators” (BRISTOL-MYERS SQUIBB COMPANY, priority 2014, dated 2017).)
